Several values for one entry are separate records, joined by “and”; a condition that tells them apart may be missing. Equal values may be shown once.
System: TGase II
Assay: TGase II assay of rat lung tissue after inhaled 13-cis RA (experiment B)
Type: in vivo
Conditions: for TGase II assay / TGase II assay DPM/µg protein: rat lung
Protocol: Male rats (n=23) (Sprague-Dawley from Charles River) were divided into six experimental groups and were given varying amounts of 13-cis RA through an inhalant apparatus once daily for different times each day for 14 days. The experimental groups were as follows (Table 1) :1.Vehicle control : rats (3) inhaled vehicle for 240 minutes; 2. Low dose 13-cis RA: rats (4) inhaled a solution containing 13-cis RA at a concentration of 62.2µg/liter (inhaled dose 115.0µg/kg body weight) in 5 minutes; 3. Low-Middle dose 13-cis RA : rats (4) inhaled a solution containing 13-cis RA at a concentration of 62.2µg/liter (inhaled dose 334.4µg/kg body weight) in 15 minutes; 4.Middle dose 13-cis RA: rats (4) inhaled a solution containing 13-cis RA at a concentration of 62.2µg/liter (inhaled dose 1012.3µg/kg body weight) in 45 minutes; 5. Middle-High dose 13-cis RA : rats (4) inhaled a solution containing 13-cis RA at a concentration of 62.2µg/liter (inhaled dose 2843.4µg/kg body weight) in 120 minutes; 6. High dose 13-cis RA : rats (4) inhaled a solution containing 13-cis RA at a concentration of 62.2µg/liter (inhaled dose 5935.6µg/kg body weight) in 240 minutes. […]
Enzyme assay mixtures were prepared by adding 80µl of SUBSTRATE mixture (322.8µl H2O, 120µl 0.5M NaBorate, 60µl 0.01M EDTA, 60µl 0.1M CaCl2, 6µl 1M DTT, 240µl dimethyl casein, 30µl Triton X-100, 1.2µl [^3H]-Putrescine, 120µl Putrescine) to 20µl sample, 20µl scraping buffer for blank control , 20 µl (18µl scraping buffer + 2µl TGase II) for positive control. Samples were mixed in 15ml tubes, the tubes were shaken before putting them into a 28°C water bath for 30 minutes. Reactions were slowed down in an ice bath. 80µl of the incubation mixture was adsorbed onto paper disks. These were immediately dropped into cold 10% TCA (0.1% Putrescine) and washed with agitation for 7 minutes, followed by 2 additional washes with 5% TCA (0.05% putrescine) for 5~7 minutes, and once more with cold (-20°C) 95% ethanol for 5 minutes. Paper disks were dried and placed into 5ml Aquasol, and counted in a Liquid Scintillation Counter. Protein concentration determination was conducted by the Bradford method.

[1] = High: 240 minutes daily 14 Days, 1872µg/kg total deposited dose
[2] = Low-Middle: 15 minutes daily 14 Days, 117µg/kg total deposited dose
[3] = Middle-High: 120 minutes daily 14 Days, 936µg/kg total deposited dose
[4] = Middle: 45 minutes daily 14 Days, 351µg/kg total deposited dose

With `CC1=C(/C=C/C(C)=C/C=C/C(C)=C\C(=O)O)C(C)(C)CCC1` [13-cis RA, 13-cis-Retinoic Acid] the “stimulation of lung TGase II activity” value (maximum, inhaled dose of 1012.3µg/kg, 45 minutes of inhalation, 14 days) was 2.9 Fold, the “TGase II assay” value [1] was 0.1025 +/- 0.004 picomoles/µg protein/30 min and 0.1025 ± 0.004 picomoles/µg protein/30 min and the “TGase II assay DPM/µg protein” value [1] was 8053 DPM/µg protein. The “TGase II assay” value [2] was 0.1150 +/- 0.006 picomoles/µg protein/30 min and 0.1150 ± 0.006 picomoles/µg protein/30 min, the “TGase II assay DPM/µg protein” value [2] was 9035 DPM/µg protein and the “TGase II assay DPM/µg protein” value (Low: 5 minutes daily 14 Days, 39µg/kg total deposited dose) was 7503 DPM/µg protein. The “TGase II assay” value (Low: 5 minutes daily 14 Days, 39µg/kg total deposited dose, vehicle 0.0450) was 0.0955 +/- 0.004 picomoles/µg protein/30 min and 0.0955 ± 0.004 picomoles/µg protein/30 min, the “TGase II assay” value [3] was 0.1020 +/- 0.005 picomoles/µg protein/30 min and 0.1020 ± 0.005 picomoles/µg protein/30 min and the “TGase II assay DPM/µg protein” value [3] was 8014 DPM/µg protein. For the same molecule, the “TGase II assay” value [4] was 0.1330 +/- 0.009 picomoles/µg protein/30 min, the “TGase II assay DPM/µg protein” value [4] was 10449 DPM/µg protein and the “stimulation of lung TGase II activity” value (with larger amounts of inhaled retinoid) was 1.2 fold.
